From patent US20220380385A1, “PYRIMIDINE FIVE-MEMBERED NITROGEN HETEROCYCLIC DERIVATIVE, PREPARATION METHOD THEREOF AND PHARMACEUTICAL USE THEREOF” (TUOJIE BIOTECH(SHANGHAI) CO., LTD., priority 2019, published 2022)
Each block holds one compound with its values, some of them ahead of it.

Columns and labels:
[1] = biological target: T1, CYP1A2 (Homo sapiens, UniProt P05177); test: CYP inhibition in mixed human liver microsomes, CYP1A2 (phenacetin); assay type: in vitro ADME; settings: mixed human liver microsomes 0.2 mg/mL, phenacetin; read-out: Median inhibitory concentration (IC50) CYP 1A2
T1 construct: Mixed human liver microsomes from 150 donors; tissue Corning 452117; host or cells: pooled human liver microsomes (150 donors)
T1 sequence (P05177 1-516): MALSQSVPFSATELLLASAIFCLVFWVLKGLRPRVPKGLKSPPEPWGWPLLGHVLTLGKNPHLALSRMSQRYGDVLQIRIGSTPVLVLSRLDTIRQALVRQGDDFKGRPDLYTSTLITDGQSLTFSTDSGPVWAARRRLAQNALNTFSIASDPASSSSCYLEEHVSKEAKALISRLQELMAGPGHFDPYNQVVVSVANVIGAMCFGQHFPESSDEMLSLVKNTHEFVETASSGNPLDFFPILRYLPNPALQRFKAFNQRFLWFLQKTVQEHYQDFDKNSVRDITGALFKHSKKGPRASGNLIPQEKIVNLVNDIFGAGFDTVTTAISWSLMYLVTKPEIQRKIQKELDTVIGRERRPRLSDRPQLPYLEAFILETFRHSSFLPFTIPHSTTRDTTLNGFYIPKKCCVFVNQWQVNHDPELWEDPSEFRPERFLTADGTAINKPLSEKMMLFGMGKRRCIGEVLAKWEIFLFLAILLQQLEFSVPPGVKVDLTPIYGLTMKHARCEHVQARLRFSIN
Procedure: (§1) Mixed human liver microsomes from 150 donors (purchased from Corning, catalog number 452117) were used to evaluate the representative substrate metabolic responses of the five main human CYP subtypes (CYP1A2, CYP2C9, CYP2C19, CYP2D6 and CYP3A4/5). The influence of different concentrations of test compounds on the metabolic responses of phenacetin (CYP1A2), diclofenac sodium (CYP2C9), S-mephenytoin (CYP2C19), bufurolol hydrochloride (2D6) and midazolam (CYP3A4/5) was determined by liquid chromatography tandem mass spectrometry (LC/MS/MS).
(§2) 200 μL of the reaction system (100 mmol/L phosphate buffer, pH 7.4, containing 0.3% DMSO, 0.6% acetonitrile and 0.1% methanol by volume respectively) with 30 µM phenacetin, 10 μM diclofenac sodium, 35 μM S-mephenytoin, 5 μM bufurolol hydrochloride, 3 μM midazolam, 1 mM NADPH, test compound (at a concentration of 0.1, 0.3, 1, 3, 10 and 30 μmol/L respectively) or positive compound or blank control and mixed human liver microsomes (0.2 mg/mL) was incubated at 37° C. for 5 minutes. […]
(§3) The peak area was calculated based on the chromatograms. The residual activity ratio (%) was calculated using the following equation: […]
(§4) The CYP median inhibitory concentration (IC50) was calculated by Excel XLfit 5.3.1.3.

[2] = biological target: T2, CYP2C19 (Homo sapiens, UniProt P33261); test: CYP inhibition in mixed human liver microsomes, CYP2C19 (S-mephenytoin); assay type: in vitro ADME; settings: mixed human liver microsomes 0.2 mg/mL, S-mephenytoin; read-out: Median inhibitory concentration (IC50) CYP 2C19
T2 construct: Mixed human liver microsomes from 150 donors; tissue Corning 452117; host or cells: pooled human liver microsomes (150 donors)
Procedure: as §1, §2, §3, §4

[3] = biological target: T3, CYP2C9 (Homo sapiens, UniProt P11712); test: CYP inhibition in mixed human liver microsomes, CYP2C9 (diclofenac sodium); assay type: in vitro ADME; settings: mixed human liver microsomes 0.2 mg/mL, diclofenac sodium; read-out: Median inhibitory concentration (IC50) CYP 2C9
T3 construct: Mixed human liver microsomes from 150 donors; tissue Corning 452117; host or cells: pooled human liver microsomes (150 donors)
Procedure: as §1, §2, §3, §4

[4] = test system: CYP3A4/5; test: CYP inhibition in mixed human liver microsomes, CYP3A4/5 (midazolam); assay type: in vitro ADME; settings: mixed human liver microsomes (150 donors), pH 7.4, probe midazolam (3 μM), mixed human liver microsomes 0.2 mg/mL, read-out: Median inhibitory concentration (IC50) CYP 3A4/5
Procedure: as §1, §2, §3, §4

[5] = biological target: T4, CYP2D6 (Homo sapiens, UniProt P10635); test: CYP inhibition in mixed human liver microsomes, CYP2D6 (bufurolol hydrochloride); assay type: in vitro ADME; settings: mixed human liver microsomes 0.2 mg/mL, bufurolol hydrochloride; read-out: Median inhibitory concentration (IC50) CYP 2D6
T4 construct: Mixed human liver microsomes from 150 donors; tissue Corning 452117; host or cells: pooled human liver microsomes (150 donors)
Procedure: as §1, §2, §3, §4

[6] = In vivo pharmacokinetics in cynomolgus monkeys (gavage); settings: male, plasma, po, 5 mg/kg, original drug, cynomolgus monkey, 5 mpk
Procedure: (§5) Cynomolgus monkeys were used as the test animals. The plasma drug concentration at different times after the cynomolgus monkeys were given the compounds of the invention by gavage was determined by using the LC/MS/MS method. The in vivo pharmacokinetic behavior of the compounds of the present invention in cynomolgus monkeys was studied, and pharmacokinetic characteristics thereof were evaluated.
Test animals: 3 healthy, 2-5 years old male cynomolgus monkeys in each group;
Administration by gavage: a certain amount of drug was weighed, and 0.5% by mass of hypromellose, 0.1% by volume of Tween 80 and 99.4% by volume of water were added thereto to formulate a white suspension at 1 mg/mL.
The cynomolgus monkeys were fasted overnight, and then the drug was administered by gavage at a dose of 5 mg/kg.
(§6) Cynomolgus monkeys were administered the compounds of the present invention by gavage. At 0.25, 0.5, 1, 2, 4, 8 and 24 hours after administration, 0.2 mL of blood was collected from the peripheral vein and placed in a test tube containing EDTA-K2. The tube was centrifuged at 2 to 8° C., 2000 rpm for 10 minutes to separate the plasma, which was stored at −75° C.
Determination of the content of the test compounds in cynomolgus monkey plasma after administration of different concentrations of drugs by gavage: 55 μL of cynomolgus monkey plasma at each time after administration was taken, and 200 μL of a solution of the internal standard verapamil or dexamethasone in acetonitrile. The mixture was mixed by vortexing for 30 seconds, centrifuged at 4° C., 3900 rpm for 15 minutes. The supernatant of the plasma samples were collected and diluted three times with water, and 15 μL was taken for LC/MS/MS analysis.

[7] = In vitro metabolic stability in rat liver microsomes; assay type: in vitro ADME; settings: rat liver microsomes (male Wistar Han), NADPH, 37° C.; read-out: Intrinsic clearance rate
Procedure: The concentration of the compound in the reaction system was determined by LC/MS/MS, so as to calculate the intrinsic clearance rate of the test compound and to evaluate the in vitro metabolic stability in rat liver microsomes.
222.5 μL, 1.1236 mg/mL of a mixed solution of rat liver microsomes (male Wistar Han strain, purchased from Corning, catalog number 452511) and 25 μL, 10 mM of NADPH were added into the incubation plate. The mixture was mixed by vortexing for 10 seconds. The plate was incubated in a water bath at 37° C. for 8 minutes. 2.5 μL, 100 μM of the test compound or positive control was added to the incubation plate to start the reaction. The mixture was mixed by vortexing for 12 seconds, and incubated in a water bath at 37° C. The reaction was stopped by transferring 20 μL of the incubation system to a stop plate containing 100 μL of cold stop solution at 0.5, 5, 10, 15, 20 and 30 minutes. The mixture was mixed by vortexing for 2 minutes. The stop plate was centrifuged at 4000 rpm for 20 minutes, then left to stand at 4° C. for 30 minutes, and then centrifuged at 4000 rpm for 20 minutes. 40 μL of the supernatant of each compound was transferred to a 96-well injection plate, and 160 μL of pure water was added to dilute the samples.
The obtained samples were quantified by ion chromatogram, and the residual rate was calculated according to the peak area of the test compounds or positive control. The slope k was determined by linear regression of the natural logarithm of the residual rate to the incubation time by using Microsoft Excel.
The in vitro half-life (in vitro t1/2) was calculated from the slope: in vitro t1/2=−(0.693/k)
The following equation was used to convert in vitro half-life into intrinsic clearance rate (in vitro CLint, μL/min/mg protein):
in vitro CLint=(0.693/t1/2)×(incubation volume (L)/protein amount (mg))

[8] = In vivo pharmacokinetics in rats (gavage); parameters: species or system SD rats; settings: original drug, rat, 7.5 mpk
Procedure: as §5, with “Rats” for “Cynomolgus monkeys”, “rats” for “cynomolgus monkeys”
Test animals: 3 healthy, 6-8 weeks old male SD rats in each group
A certain amount of drug was weighed, and 0.5% by mass of hypromellose, 0.1% by volume of Tween 80 and 99.4% by volume of water were added thereto to formulate a white suspension at 1 mg/mL.
SD rats were fasted overnight, then the drug was administered by gavage. The dosage of reference 1 was 7.5 mg/kg, and the dosage of Example 1 was 5 mg/kg.
as §6, with “Rats” for “Cynomolgus monkeys”, “jugular” for “peripheral”, “4°” for “2 to 8°”, “4000” for “2000”, “5” for “10”
Determination of the content of the test compounds in rat plasma after administration of different concentrations of drugs by gavage: 50 μL of rat plasma at each time after administration was taken, and 200 μL of a solution of the internal standard dexamethasone in acetonitrile (50 ng/mL). The mixture was mixed by vortexing for 30 seconds, centrifuged at 4° C., 4700 rpm for 15 minutes. The supernatant of the plasma samples were collected and diluted three times with water, and 2.0 μL was taken for the LC/MS/MS analysis.

[9] = biological target: T5, full-length SHP2 (aa 1-593) (Homo sapiens, UniProt Q06124); test: Activity on SHP2 phosphatase (DiFMUP fluorescence)
T5 sequence (Q06124 1-593): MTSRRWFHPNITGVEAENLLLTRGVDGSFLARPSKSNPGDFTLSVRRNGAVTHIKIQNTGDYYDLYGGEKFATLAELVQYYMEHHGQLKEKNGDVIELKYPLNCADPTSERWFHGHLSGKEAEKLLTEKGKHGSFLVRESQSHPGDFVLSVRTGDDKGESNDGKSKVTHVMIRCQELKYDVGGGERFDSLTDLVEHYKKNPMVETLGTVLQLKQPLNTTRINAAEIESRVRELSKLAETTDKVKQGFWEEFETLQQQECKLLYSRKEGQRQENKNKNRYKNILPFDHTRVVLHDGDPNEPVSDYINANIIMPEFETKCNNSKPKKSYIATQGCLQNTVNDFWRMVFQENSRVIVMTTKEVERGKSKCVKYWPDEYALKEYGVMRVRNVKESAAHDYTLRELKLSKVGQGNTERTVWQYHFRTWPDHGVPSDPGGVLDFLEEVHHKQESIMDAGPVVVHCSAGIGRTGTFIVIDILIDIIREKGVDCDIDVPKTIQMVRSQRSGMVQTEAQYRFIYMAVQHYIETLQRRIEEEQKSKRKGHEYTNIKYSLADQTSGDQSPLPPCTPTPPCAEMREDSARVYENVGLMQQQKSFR
Procedure: 0.2 nM recombinantly expressed full-length SHP2 (aa 1-593), 0.5 nM activated polypeptide IRS1 with dual phosphorylation sites (sequence: H2N-LN(pY)IDLDLY(dPEG8)LST(pY)ASINFQK-amide), and a series of concentrations of the test compound (final concentrations of 1 μM, 0.3 μM, 0.1 μM, 0.03 μM, 0.01 μM, 0.003 μM, 0.001 M, 0.0003 μM, 0.0001 μM and 0.00003 μM) were added into the phosphatase reaction solution (60 mM HEPES, PH 7.5 0.005% Brij-35, 75 mM NaCl, 75 mM KCl, 1 mM EDTA, 5 mM DTT), followed by shaking (350 rpm) at room temperature for 30 minutes. Then the reaction substrate DiFMUP was added at a final concentration of 30 μM, and the reaction solution was reacted at room temperature for 30 minutes. Then the phosphatase reaction was stopped by adding 5 μL of the reaction stop solution (60 mM HEPES, pH 7.5, 0.2% SDS). Ex358 nm/Em455 fluorescence value was read on the fluorescence plate reader MD SpectraMax.
The IC50 value of compounds was calculated by using the four-parameter logit method. […] Different concentrations correspond to different inhibition rates of phosphatase activity. A reverse curve was plotted and the IC50 of the inhibitors was calculated from the curve. The IC50 of compounds was calculated by using Primer premier 6.0.

T4 sequence (P10635 whole entry): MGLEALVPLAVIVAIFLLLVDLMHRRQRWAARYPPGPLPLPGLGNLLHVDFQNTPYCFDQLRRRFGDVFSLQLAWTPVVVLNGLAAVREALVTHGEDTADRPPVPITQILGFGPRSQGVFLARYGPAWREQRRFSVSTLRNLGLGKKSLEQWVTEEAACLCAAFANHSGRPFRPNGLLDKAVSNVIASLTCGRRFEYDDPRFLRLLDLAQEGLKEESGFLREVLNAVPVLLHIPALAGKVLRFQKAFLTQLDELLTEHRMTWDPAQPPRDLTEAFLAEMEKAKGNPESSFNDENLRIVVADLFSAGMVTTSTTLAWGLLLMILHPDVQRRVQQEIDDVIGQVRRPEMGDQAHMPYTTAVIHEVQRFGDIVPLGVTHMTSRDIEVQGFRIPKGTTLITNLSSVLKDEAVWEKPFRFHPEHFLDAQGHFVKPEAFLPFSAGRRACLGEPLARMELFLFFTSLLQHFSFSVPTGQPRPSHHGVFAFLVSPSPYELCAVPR
T3 sequence (P11712 whole entry): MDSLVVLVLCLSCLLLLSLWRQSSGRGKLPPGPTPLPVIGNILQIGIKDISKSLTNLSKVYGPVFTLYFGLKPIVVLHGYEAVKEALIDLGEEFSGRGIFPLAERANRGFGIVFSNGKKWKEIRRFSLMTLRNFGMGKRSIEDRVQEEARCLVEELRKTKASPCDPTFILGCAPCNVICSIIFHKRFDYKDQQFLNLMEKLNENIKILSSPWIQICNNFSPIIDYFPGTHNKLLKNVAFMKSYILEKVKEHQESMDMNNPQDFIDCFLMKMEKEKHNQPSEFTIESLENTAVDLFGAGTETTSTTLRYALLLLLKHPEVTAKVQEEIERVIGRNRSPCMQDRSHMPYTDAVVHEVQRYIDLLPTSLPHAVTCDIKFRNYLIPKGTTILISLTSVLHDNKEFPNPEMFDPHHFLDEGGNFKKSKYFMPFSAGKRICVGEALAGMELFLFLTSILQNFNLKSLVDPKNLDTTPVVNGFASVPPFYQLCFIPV
T2 sequence (P33261 whole entry): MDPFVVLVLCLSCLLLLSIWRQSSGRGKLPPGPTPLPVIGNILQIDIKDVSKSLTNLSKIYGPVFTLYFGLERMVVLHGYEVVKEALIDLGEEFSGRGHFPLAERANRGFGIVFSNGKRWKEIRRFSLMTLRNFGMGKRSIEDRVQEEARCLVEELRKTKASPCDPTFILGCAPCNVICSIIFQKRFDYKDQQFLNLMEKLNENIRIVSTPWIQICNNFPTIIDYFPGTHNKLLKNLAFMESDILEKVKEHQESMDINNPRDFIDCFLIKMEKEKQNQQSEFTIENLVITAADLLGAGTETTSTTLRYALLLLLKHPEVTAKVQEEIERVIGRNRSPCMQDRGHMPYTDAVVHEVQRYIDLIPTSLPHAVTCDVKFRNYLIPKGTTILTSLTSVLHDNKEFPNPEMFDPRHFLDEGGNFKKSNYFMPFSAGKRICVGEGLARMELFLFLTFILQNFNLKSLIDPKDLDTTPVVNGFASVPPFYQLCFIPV

IC50 [1]: 9.21 µM
IC50 [2]: > 20 µM
IC50 [3]: > 20 µM
IC50 at 5 min [4]: > 20 µM
IC50 [5]: > 20 µM
SMILES: Nc1nccc(Sc2cnc(N3CCC4(CC3)Cc3ncccc3[C@H]4N)n3ccnc23)c1Cl [Example 1, (S)-1′-(8-((2-Amino-3-chloropyridin-4-yl)thio)imidazo[1,2-c]pyrimidin-5-yl)-5,7-dihydrospiro[cyclopenta[b]pyridine-6,4′-piperidin]-5-amine]

SMILES: CNc1nccc(Sc2c(C)nc(N3CCC4(CC3)Cc3ncccc3[C@H]4N)n3ccnc23)c1Cl [Example 2, (S)-1′-(8-((3-Chloro-2-(methylamino)pyridin-4-yl)thio)-7-methylimidazo[1,2-c]pyrimidin-5-yl)-5,7-dihydrospiro[cyclopenta[b]pyridine-6,4′-piperidin]-5-amine]
AUC ([6]; read-out: Area under curve AUC): 71000 ng·h/mL
Cmax ([6]; read-out: Maximum blood conc. Cmax): 12700 ng/mL
microsomal CLint at 1 µM [7]: 19.2 µL/min/mg
AUC ([8]; male, SD, plasma, po, 7.5 mg/kg, read-out: Area under curve AUC): 4250 ng·h/mL
Cmax ([8]; male, SD, plasma, po, 7.5 mg/kg, read-out: Maximum blood conc. Cmax): 500 ng/mL
Area under curve of unit dose AUC/D [8]: 567 ng*h/mL per mg/kg

SMILES: [2H]C([2H])Nc1nccc(Sc2c(C)nc(N3CCC4(CC3)Cc3ncccc3[C@H]4N)n3ccnc23)c1Cl [Example 5, (S)-1′-(8-((3-Chloro-2-((methyl-d2)amino)pyridin-4-yl)thio)-7-methylimidazo[1,2-c]pyrimidin-5-yl)-5,7-dihydrospiro[cyclopenta[b]pyridine-6,4′-piperidin]-5-amine]
IC50 [9]: 0.0048 µM
microsomal CLint at 1 µM [7]: 26.6 µL/min/mg

SMILES: [2H]CNc1nccc(Sc2c(C)nc(N3CCC4(CC3)Cc3ncccc3[C@H]4N)n3ccnc23)c1Cl [Example 6, (S)-1′-(8-((3-Chloro-2-((methyl-d)amino)pyridin-4-yl)thio)-7-methylimidazo[1,2-c]pyrimidin-5-yl)-5,7-dihydrospiro[cyclopenta[b]pyridine-6,4′-piperidin]-5-amine]
IC50 [9]: 0.0047 µM
microsomal CLint at 1 µM [7]: 34.7 µL/min/mg
